Here are results for 33 compounds from patent publication US10336774B2, “N-azaspirocycloalkane substituted N-heteroaryl compounds and compositions for inhibiting the activity of SHP2” (NOVARTIS AG, priority 2014, dated 2019).

pIC50: −log10 of the molar value.

One may read the pIC50 as the IC50 on a negative log10 scale, so that one unit is a factor of ten.

Chain of SHP2 (Q06124 whole entry): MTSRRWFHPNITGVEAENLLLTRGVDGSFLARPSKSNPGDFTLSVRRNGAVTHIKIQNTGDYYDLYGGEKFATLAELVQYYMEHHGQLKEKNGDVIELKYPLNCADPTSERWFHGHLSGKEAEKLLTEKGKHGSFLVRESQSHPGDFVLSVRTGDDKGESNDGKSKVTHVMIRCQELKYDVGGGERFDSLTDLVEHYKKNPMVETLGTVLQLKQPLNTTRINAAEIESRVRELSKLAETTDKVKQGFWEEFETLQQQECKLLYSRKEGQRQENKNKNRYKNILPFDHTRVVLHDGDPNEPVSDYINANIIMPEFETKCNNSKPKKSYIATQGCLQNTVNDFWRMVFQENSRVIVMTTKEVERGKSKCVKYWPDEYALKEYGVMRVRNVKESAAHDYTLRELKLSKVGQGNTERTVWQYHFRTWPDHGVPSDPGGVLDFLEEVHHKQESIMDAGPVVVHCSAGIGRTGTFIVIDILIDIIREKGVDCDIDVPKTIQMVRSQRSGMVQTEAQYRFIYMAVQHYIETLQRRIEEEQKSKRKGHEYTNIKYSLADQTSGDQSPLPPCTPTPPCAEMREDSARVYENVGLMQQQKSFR

One experiment deals with SHP2 (Homo sapiens (Human), UniProt Q06124). Put plainly: SHP2 Allosteric Inhibition Assay. The class given is biochemical. The settings on record: 0.5 nM SHP2 activated with 0.5 μM peptide IRS1_pY1172(dPEG8)pY1222, surrogate substrate DiFMUP, fluorescence. The source says:
SHP2 Allosteric Inhibition Assay SHP2 is allosterically activated through binding of bis-tyrosyl-phorphorylated peptides to its Src Homology 2 (SH2) domains. The latter activation step leads to the release of the auto-inhibitory interface of SHP2, which in turn renders the SHP2 protein tyrosine phosphatase (PTP) active and available for substrate recognition and reaction catalysis. The catalytic activity of SHP2 was monitored using the surrogate substrate DiFMUP in a prompt fluorescence assay format. […] After 30-60 minutes incubation at 25° C., the surrogate substrate DiFMUP (Invitrogen, cat# D6567) was added to the reaction and incubated at 25° C. for 30 minutes. […] The inhibitor dose response curves were analyzed using normalized IC50 regression curve fitting with control based normalization.
As for `Nc1nc(N2CCC3(CC2)COC[C@H]3N)cnc1Sc1ccnc(N)c1Cl` [Example 52], the pIC50 is 8.15.
For the compound `Nc1nc(N2CCC3(CC2)COC[C@@H]3N)cnc1Sc1ccnc(N)c1Cl` [Example 53], the pIC50 is 6.53.
The same measure, in the same setting: the value for `Nc1nc(N2CCC3(CC2)COC[C@H]3N)cnc1Sc1cccnc1Cl` [Example 54] was 8.00; that for `Nc1nc(N2CCC3(CC2)COC[C@H]3N)cnc1Sc1ccnnc1Cl` [Example 55] was 7.14.
The same measure, in the same setting: the same measure for `C[C@@H]1CCC2(CCN(c3cnc(Sc4ccnc(N)c4Cl)c(N)n3)CC2)[C@@H]1N` [Example 56]: 8.05; for `Nc1nc(N2CCC3(CC2)C[C@H](O)C[C@H]3N)cnc1Sc1ccnc(Cl)c1Cl` [Example 57]: 8.52; for `Nc1nc(N2CCC3(CC2)C[C@@H](O)C[C@H]3N)cnc1Sc1ccnc(Cl)c1Cl` [Example 58]: 8.40.
As for `CO[C@H]1C[C@@H](N)C2(CCN(c3cnc(Sc4ccnc(N)c4Cl)c(N)n3)CC2)C1` [Example 59], the pIC50 was 8.00.
In turn, `CO[C@H]1C[C@@H](N)C2(CCN(c3cnc(Sc4ccnc(Cl)c4Cl)c(N)n3)CC2)C1` [Example 60] gave a pIC50 of 8.40.
Compound `C[C@@H]1C[C@@H](N)C2(CCN(c3cnc(Sc4cccnc4C(F)(F)F)c(N)n3)CC2)C1` [Example 61] showed a pIC50 of 8.15.
Still for that read-out and setting: the value for `C[C@@H]1C[C@H](N)C2(CCN(c3cnc(Sc4cccnc4C(F)(F)F)c(N)n3)CC2)C1` [Example 62] was 7.00.
Same read-out and setting: the same measure for `Nc1nc(N2CCC3(CC2)COC[C@H]3N)cnc1Sc1ccnc(Cl)c1Cl` [Example 63]: 8.15.
As for `Nc1nc(N2CCC3(CC2)COC[C@H]3N)cnc1Sc1ccnc(F)c1Cl` [Example 64], the pIC50 is 7.89.
The compound `Nc1nc(N2CCC3(CCC[C@H]3N)CC2)cnc1Sc1cc(F)ncc1Cl` [Example 65] had a pIC50 of 6.51.
On to `CC(C)C(=O)O[C@@H]1C[C@@H](N)C2(CCN(c3cnc(Sc4ccnc(Cl)c4Cl)c(N)n3)CC2)C1` [Example 66], for which the pIC50 was 7.19.
Turning to `Nc1nc(N2CCC3(CC2)CC(F)(F)C[C@H]3N)cnc1Sc1ccnc(N)c1Cl` [Example 67], the pIC50 is 8.00.
Regarding `C[C@H]1C[C@@H](N)C2(CCN(c3cnc(Sc4ccnc(N)c4Cl)c(N)n3)CC2)C1` [Example 70, (1R,3R)-8-(6-amino-5-((2-amino-3-chloropyridin-4-yl)thio)pyrazin-2-yl)-3-methyl-8-azaspiro[4.5]decan-1-amine], the pIC50 is 8.30.
`C[C@@H]1C[C@@H](N)C2(CCN(c3cnc(Sc4ccnc(N)c4Cl)c(N)n3)CC2)C1` [Example 71, (1R,3S)-8-(6-amino-5-((2-amino-3-chloropyridin-4-yl)thio)pyrazin-2-yl)-3-methyl-8-azaspiro[4.5]decan-1-amine] had a pIC50 of 8.30.
The compound `NC1=NCC2(CCN(c3cnc(Sc4cccnc4C(F)(F)F)c(N)n3)CC2)O1` [Example 72, 8-(6-amino-5-((2-(trifluoromethyl)pyridin-3-yl)thio)pyrazin-2-yl)-1-oxa-3,8-diazaspiro[4.5]dec-2-en-2-amine] showed a pIC50 of 6.71.
On to `NC1=NC2(CCN(c3cnc(Sc4ccnc(Cl)c4Cl)c(N)n3)CC2)CO1` [Example 73], for which the pIC50 was 7.70.
Still for that read-out and setting: the value for `NC1=NC2(CCN(c3cnc(Sc4cccnc4C(F)(F)F)c(N)n3)CC2)CO1` [Example 74] was 7.25; that for `CN(C)c1nccc(Sc2ncc(N3CCC4(CCC[C@H]4N)CC3)nc2N)c1Cl` [Example 75, (R)-8-(6-amino-5-((3-chloro-2-(dimethylamino)pyridin-4-yl)thio)pyrazin-2-yl)-8-azaspiro[4.5]decan-1-amine] was 8.00; that for `Nc1nc(N2CCC3(CCC[C@H]3N)CC2)cnc1Sc1ccnnc1Cl` [Example 76] was 7.11.
The compound `COc1nccc(Sc2ncc(N3CCC4(CCC[C@H]4N)CC3)nc2N)c1Cl` [Example 78] gave a pIC50 of 7.82.
The compound `Nc1nc(N2CCC3(CCC[C@H]3N)CC2)cnc1Sc1ccncc1C(F)(F)F` [Example 80] gave a pIC50 of 7.38.
`Nc1nc(N2CCC3(CCC[C@H]3N)CC2)cnc1Sc1cc[nH]c(=O)c1Cl` [Example 81, (R)-4-((3-amino-5-(1-amino-8-azaspiro[4.5]decan-8-yl)pyrazin-2-yl)thio)-3-chloropyridin-2(1H)-one] gave a pIC50 of 7.70.
Turning to `Nc1cc(Sc2ncc(N3CCC4(CCC[C@H]4N)CC3)nc2N)c(Cl)c(Cl)n1` [Example 87], the pIC50 is 8.03.
`C[C@@H]1OCC2(CCN(c3cnc(Sc4cc(N)nc(Cl)c4Cl)c(N)n3)CC2)[C@@H]1N` [Example 88] showed a pIC50 of 8.40.
Still for that read-out and setting: the same measure for `Nc1cc(Sc2ncc(N3CCC4(CC3)COC[C@H]4N)nc2N)c(Cl)c(Cl)n1` [Example 89]: 7.93.
Consider `Nc1cc(Sc2ncc(N3CCC4(CC3)C[C@H](O)C[C@H]4N)nc2N)c(Cl)c(Cl)n1` [Example 90], for which the pIC50 is 8.40.
Compound `Nc1nc(N2CCC3(CC2)C[C@@H](F)C[C@H]3N)cnc1Sc1ccnc(N)c1Cl` [Example 91] gave a pIC50 of 8.10.
The same measure, in the same setting: the same measure for `Nc1nc(N2CCC3(CC2)C[C@H](F)C[C@H]3N)cnc1Sc1ccnc(N)c1Cl` [Example 92]: 8.00.

Staying with this experiment, now noted: unit given as M; TFA salt before chiral separation.
As for `CC1CCC2(CCN(c3cnc(Sc4cccnc4C(F)(F)F)c(N)n3)CC2)[C@@H]1N` (stereo partly drawn) [Example 86a/b, (1R)-8-(6-amino-5-((2-(trifluoromethyl)pyridin-3-yl)thio)pyrazin-2-yl)-2-methyl-8-azaspiro[4.5]decan-1-amine], the pIC50 was 9.00.
